From PubChem BioAssay AID2060342 (Molecular Pharmacology Branch, DTP, NCI, 2025)

Tested on: 171881-019-R-J1-PDC multicell spheroid viability
Test: Anticancer human tumor 171881-019-R-J1-PDC patient-derived invasive breast carcinoma cell line growth inhibition [IpAb]
Conditions: for IC50: curve of first compound; for viability, T/C: stronger effect = lower value
Outline: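 Combinations with ipatasertib or abemaciclib were tested on tumour spheroids holding HUVEC (25%) and MSC (15%) alongside 60% malignant cells. Top concentration was at or near clinical Cmax (10 microM if undefined), descending in half-log steps.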
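Further: spheroids exposed to the agents for seven days before readout.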

CC(C)(C)c1cnc(CSc2cnc(NC(=O)C3CCNCC3)s2)o1 + CC(C)NCC(C(=O)N1CCN(c2ncnc3c2C(C)CC3O)CC1)c1ccc(Cl)cc1
IC50 (second compound 0.1 µM): 187 nM
IC50 (second compound 0.316 µM): 156 nM
IC50 (second compound 1 µM): < 9.49 nM
IC50 (second compound 3.16 µM): < 9.49 nM
IC50 (second compound 10 µM): < 9.49 nM
viability, T/C (second compound 0.1 µM, first compound 0.00949 µM): 104%
viability, T/C (second compound 0.1 µM, first compound 0.03 µM): 120%
viability, T/C (second compound 0.1 µM, first compound 0.0949 µM): 133%
viability, T/C (second compound 0.1 µM, first compound 0.3 µM): 2.16%
viability, T/C (second compound 0.1 µM, first compound 0.949 µM): 0.19%
viability, T/C (second compound 0.1 µM, first compound 3 µM): 0.6%
viability, T/C (second compound 0.316 µM, first compound 0.00949 µM): 82.3%
viability, T/C (second compound 0.316 µM, first compound 0.03 µM): 91%
viability, T/C (second compound 0.316 µM, first compound 0.0949 µM): 89.2%
viability, T/C (second compound 0.316 µM, first compound 0.3 µM): 0.99%
viability, T/C (second compound 0.316 µM, first compound 0.949 µM): 0.25%
viability, T/C (second compound 0.316 µM, first compound 3 µM): 0.63%
viability, T/C (second compound 1 µM, first compound 0.00949 µM): 24.9%
viability, T/C (second compound 1 µM, first compound 0.03 µM): 34.3%
viability, T/C (second compound 1 µM, first compound 0.0949 µM): 38.6%
viability, T/C (second compound 1 µM, first compound 0.3 µM): 0.53%
viability, T/C (second compound 1 µM, first compound 0.949 µM): 0.49%
viability, T/C (second compound 1 µM, first compound 3 µM): 0.25%
viability, T/C (second compound 3.16 µM, first compound 0.00949 µM): 11.1%
viability, T/C (second compound 3.16 µM, first compound 0.03 µM): 13.2%
viability, T/C (second compound 3.16 µM, first compound 0.0949 µM): 19.1%
viability, T/C (second compound 3.16 µM, first compound 0.3 µM): 0.68%
viability, T/C (second compound 3.16 µM, first compound 0.949 µM): 0.24%
viability, T/C (second compound 3.16 µM, first compound 3 µM): 0.28%
viability, T/C (second compound 10 µM, first compound 0.00949 µM): 5.77%
viability, T/C (second compound 10 µM, first compound 0.03 µM): 6.05%
viability, T/C (second compound 10 µM, first compound 0.0949 µM): 9.31%
viability, T/C (second compound 10 µM, first compound 0.3 µM): 0.64%
viability, T/C (second compound 10 µM, first compound 0.949 µM): 0.26%
viability, T/C (second compound 10 µM, first compound 3 µM): 0.31%

Cn1nccc1Nc1nccc(-c2ccn(C(CO)c3ccc(Cl)c(F)c3)c(=O)c2)n1 (stereo not given) + CC(C)NCC(C(=O)N1CCN(c2ncnc3c2C(C)CC3O)CC1)c1ccc(Cl)cc1
IC50 (second compound 0.1 µM): 169 nM
IC50 (second compound 0.316 µM): 64.8 nM
IC50 (second compound 1 µM): < 31.6 nM
IC50 (second compound 3.16 µM): < 31.6 nM
IC50 (second compound 10 µM): < 31.6 nM
viability, T/C (second compound 0.1 µM, first compound 0.0316 µM): 111%
viability, T/C (second compound 0.1 µM, first compound 0.1 µM): 65.8%
viability, T/C (second compound 0.1 µM, first compound 0.316 µM): 32.5%
viability, T/C (second compound 0.1 µM, first compound 1 µM): 10.4%
viability, T/C (second compound 0.1 µM, first compound 3.16 µM): 7.79%
viability, T/C (second compound 0.1 µM, first compound 10 µM): 7.95%
viability, T/C (second compound 0.316 µM, first compound 0.0316 µM): 69.1%
viability, T/C (second compound 0.316 µM, first compound 0.1 µM): 38.5%
viability, T/C (second compound 0.316 µM, first compound 0.316 µM): 9.02%
viability, T/C (second compound 0.316 µM, first compound 1 µM): 4.73%
viability, T/C (second compound 0.316 µM, first compound 3.16 µM): 3.47%
viability, T/C (second compound 0.316 µM, first compound 10 µM): 3.81%
viability, T/C (second compound 1 µM, first compound 0.0316 µM): 17.9%
viability, T/C (second compound 1 µM, first compound 0.1 µM): 10.3%
viability, T/C (second compound 1 µM, first compound 0.316 µM): 3.68%
viability, T/C (second compound 1 µM, first compound 1 µM): 2.46%
viability, T/C (second compound 1 µM, first compound 3.16 µM): 2.13%
viability, T/C (second compound 1 µM, first compound 10 µM): 1.27%
viability, T/C (second compound 3.16 µM, first compound 0.0316 µM): 6.73%
viability, T/C (second compound 3.16 µM, first compound 0.1 µM): 3.37%
viability, T/C (second compound 3.16 µM, first compound 0.316 µM): 2.44%
viability, T/C (second compound 3.16 µM, first compound 1 µM): 1.77%
viability, T/C (second compound 3.16 µM, first compound 3.16 µM): 0.69%
viability, T/C (second compound 3.16 µM, first compound 10 µM): 0.94%
viability, T/C (second compound 10 µM, first compound 0.0316 µM): 3.16%
viability, T/C (second compound 10 µM, first compound 0.1 µM): 2.33%
viability, T/C (second compound 10 µM, first compound 0.316 µM): 1.55%
viability, T/C (second compound 10 µM, first compound 1 µM): 1.06%
viability, T/C (second compound 10 µM, first compound 3.16 µM): 0.84%
viability, T/C (second compound 10 µM, first compound 10 µM): 0.32%
